Tested on: ceramidase
Assay: Ceramidase activity assay in lysate of treated INS1 cells
Format: cell-based, rat
Details: INS1 cells treated 20 μM 24 h
Procedure: INS1 cells were cultured in 10 cm dish and treated with AdipoRon or AdipoRonPEG5 (20 μM) for 24 h. Remove the media and collect cells using a cell scraper and transfer cells to a 1.5 ml tube. Centrifuge to spin down the cells before freezing in liquid nitrogen. Cell pellets were stored at –80°C till analysis. During analysis, INS1 cell pellets on dry ice were mixed with 500 μl of Dulbecco PBS with Ca^2+ and Mg^2+. The sample was then immediately placed on ice and lysed with a tissue disruptor probe (Fisher Scientific, Model FB50, Waltham MA) by performing five short disruption cycles at a power of 30% (3 s each cycle). Briefly perform a gentle vortexing of the vial. Take an aliquot of 50 μl of sample for protein determination (Pierce™ BCA Protein Assay Kit, Thermo Fisher Scientific). In total, 400 μl of lysate was transferred to a culture borosilicate glass tube containing 1.6 ml of Dulbecco PBS with Ca^2+ and Mg^2+ on ice. […] All the samples and serial dilutions were analyzed by injecting 1 μl in the LC-MS/MS system: Shimadzu LCMS-8060 triple-quadrupole mass spectrometer coupled to a Nexera X2 UHPLC chromatograph (Shimadzu Scientific Instruments, Columbia, MD) operating the dual ion source (DUIS) in electrospray positive ionization mode. […]

| SMILES | ceramidase activity / labeled ceramide levels in cell lysate |
| --- | --- |
| O=C(COc1ccc(C(=O)c2ccccc2)cc1)NC1CCN(Cc2ccccc2)CC1 [AdipoRon] | remained essentially the same as untreated control |
| O=C(COc1ccc(C(=O)c2ccccc2)cc1)NC1CCN(Cc2ccc(OCCOCCOCCOCCOCCO)cc2)CC1 [AdipoRonPEG5] | reduced levels of labeled ceramides |

Reference: publication PMC8327158, “PEGylated AdipoRon derivatives improve glucose and lipid metabolism under insulinopenic and high-fat diet conditions” (Journal of Lipid Research, 2021)
